“Also recorded” adds a separate entry of the source. {Fluorescein} = fluorescein label
Experiments:
Assay type in all cases: cell-based, mouse
[1] = system: 17-20 kDa caspase-3 cleavage product; test: Caspase-3 cleavage product immunofluorescence in ODN-transfected cortical neurons; details: fluorescence microscopy, hypoxic cortical neurons
Experimental: Cultures were fixed with 4% paraformaldehyde and incubated over night at 4° C. with one or more of the following primary antibodies: rabbit polyclonal anti-Ngb (1:200), mouse monoclonal anti-NeuN (1:200, Chemicon), and rabbit polyclonal anti-17-20 kDa caspase-3 cleavage product (1:100, New England Biolabs). The secondary antibodies (all 1:200) were fluorescein isothiocyanate-conjugated goat anti-rabbit or anti-mouse IgG (Vector) and rhodamine-conjugated donkey anti-rabbit IgG (Jackson ImmunoResearch). Controls for non-specific binding included omitting primary (FIG. 1C) or secondary antibodies. In addition, in some cultures, nuclei were labeled with 4′,6-diamidino-2-phenylindole (DAPI) or DNA strand breaks were labeled with the Klenow fragment of DNA polymerase I (Roche) followed by rhodamine avidin D (Vector), as described (Jin et al. (1999) J Neurochem 72: 1204-1214). Fluorescence signals were detected with a Nikon E800 epifluorescence microscope using excitation/emission wavelengths of 535/565 nm for rhodamine (red), 470/505 nm for fluorescein isothiocyanate (green) and 360/400 nm for DAPI (blue). Results were recorded with a Magnifire digital color camera (Optronics). […]

[2] = system: cultured cortical neurons; test: Cell viability (MTT absorbance, trypan blue exclusion) of ODN-treated cultured cortical neurons
Experimental: Neuronal cultures were prepared from the cerebral hemispheres of 16-day Charles River CD1 mouse embryos, seeded at 3×10^5 cells per well on 24-well culture dishes precoated with poly-D-lysine, and grown in Eagle's minimal essential medium (GIBCO BRL) with 5% horse serum and 5% fetal bovine serum (Jin et al. (2000) Proc. Natl. Acad. Sci. U.S.A. 97: 10242-10247). Cultures were treated with 10 μM cytosine arabinoside on day 6 and used on day 11, when >95% of cells expressed the neuronal marker, microtubule-associated protein 2. […] Cell viability was assayed by incubating cultures with 5 mg/ml of 3-(4,5-dimethylthiazol-2-yl)-2,5-diphenyl tetrazolium bromide (MTT) at 37° C. for 2 h and measuring absorbance at 570 nm in solubilized cells using a Cytofluor Series 4000 multi-well plate-reader (PerSeptive Biosystems). […]
(§1) A phosphorothioate antisense ODN labeled with fluorescein at the 5′ end and directed against the initial coding region of the target Ngb mRNA (5′-TCC GGG CGC TCC AT-3′, from nucleotides 90-77, SEQ ID NO:2)was designed based on the mouse Ngb sequence obtained from Genbank (accession number NM 022414). […] Cultures were analyzed by Western blotting and by MTT cell viability assay, and fluorescence microscopy was used to confirm transfection and examine its relationship to cell death, using caspase-3 activation as a marker.

[3] = system: cultured cortical neurons; test: Transfection efficiency of fluorescent ODN in cortical neuron cultures; details: fluorescent Ngb antisense ODN, DAPI counterstain, n=10
From the text: A phosphorothioate antisense ODN labeled with fluorescein at the 5′ end and directed against the initial coding region of the target Ngb mRNA (5′-TCC GGG CGC TCC AT-3′, from nucleotides 90-77, SEQ ID NO:2)was designed based on the mouse Ngb sequence obtained from Genbank (accession number NM 022414). This and a sense sequence (5′-ATG GAG CGC CCG GA-3′, SEQ ID NO:3), from nucleotides 77-90) were synthesized commercially (Operon Technologies) and purified by HPLC. Cultures were transfected with ODNs (1-10 μM) using FuGENE 6 (Roche), beginning 3 h before the onset of hypoxia. Cultures were analyzed by Western blotting and by MTT cell viability assay, and fluorescence microscopy was used to confirm transfection and examine its relationship to cell death, using caspase-3 activation as a marker.
To begin to investigate the possibility that Ngb protects neurons from hypoxia, cultured neurons were transfected with a phosphorothioate antisense ODN directed against the initial coding region of the target Ngb mRNA (5′-TCC GGG CGC TCC AT-3′, from nucleotides 90-77, SEQ ID NO:4) or with a control sense sequence (5′-ATG GAG CGC CCG GA-3′, from nucleotides 77-90, SEQ ID NO:5), both labeled with fluorescein at the 5′ end. Transfection efficiency, measured in cultures transfected with the fluorescent Ngb antisense ODN and counterstained with DAPI, was 96±1% (n=10). […]

[4] = system: Ngb mRNA; test: Ngb protein expression in cultured cortical neurons transfected with antisense/sense ODN (Western blot); details: ODN-transfected cortical neurons vs sense-transfected or untransfected control cultures
Experimental: Cell lysates were prepared as described (Jin et al. (2000) Proc. Natl. Acad. Sci. U.S.A. 97: 10242-10247) and 100-μg protein samples were electrophoresed on 12% SDS-PAGE gels and transferred to polyvinyldifluoridine membranes. Membranes were incubated overnight at 4° C. with a rabbit polyclonal antibody against Ngb (1:2000), which was produced by immunizing with a synthetic peptide corresponding to amino-acids 35-50 (NH2-CLSSPEFLDHIRKVML-COOH, , SEQ ID NO:1) of mouse Ngb, and affinity-purified using a Sulfolink kit (Pierce). A horseradish peroxidase-conjugated anti-rabbit secondary antibody (Santa Cruz Biotechnology) and a chemiluminescence substrate system (NEN) were used to visualize the immunolabeled bands (Id.).
as §1

## 5′-TCC GGG CGC TCC AT-3′ (antisense TCCGGGCGCTCCAT; DNA, all phosphorothioate, 5' {Fluorescein}, methylation of C not given here) [antisense ODN]
[1]
  transfected cells co-expressing the 17-20 kDa caspase-3 cleavage product: many
[2]; 0.1 μM staurosporine or 200-400 μM SNP, 12 h, 5 μM ODN
  effect on the toxicity of staurosporine or SNP: no effect
[2]; 12 h without oxygen, 5 μM ODN added 3 h prior, MTT absorbance or trypan blue exclusion
  viability of cultured neurons exposed to hypoxia: decrease in the viability
[3]
  Transfection efficiency: 96±1%
[4]
  Ngb protein expression: reduced; also recorded: decreased Ngb expression

Source: patent publication US20050170345A1, “Neuroglobin is up-regulated by and protects neurons from hypoxic-ischemic injury” (priority 2001, published 2005)
